“Also recorded” adds a separate entry of the source.
Key:
Renca tumor = assay: BALB/c mouse Renca renal cell carcinoma tumor model, tumor inhibition rate; format: in vivo, BALB/c mice; set-up: Tumor Inhibition Rates (Compared with Control Group): concentration or dose not given beside the values; details: for Tumor Inhibition Rates (Compared with Control Group): Renca model
Method: BALB/c female mice, aged 6-8 weeks and weighing around 20 grams, were utilized. Renca cells (3.0×106) dissolved in 100 μL PBS were subcutaneously injected into the BALB/c mice. Upon reaching a tumor volume of about 70 mm^3, experimental animals were randomly distributed into control and treatment groups.
Lenvatinib was administered orally once daily at a dosage of 7.5 mg/kg; hydroxyprogesterone caproate was administered intraperitoneally (abbreviated as i.p. in the table) every two days. Anti-PD-1 antibody (BioXCell, Supplier: Yicon (Beijing) Medical Technology Inc.) was diluted in PBS and administered every four days at a dose of 100 μg per mouse.
Tumor size was measured biweekly using calipers for two-dimensional measurements. The volume was calculated using the formula and expressed in mm^3: V=(X^2Y)/2, where X and Y represent the shorter and longer diameters of the tumor, respectively.

MC38/hPD-L1 tumor = assay: Humanized PD-1 mouse MC38/hPD-L1 tumor model; format: in vivo, humanized PD-1 mice
Method: Humanized PD-1 mice, female, aged 6-8 weeks, weighing approximately 20 grams, were used. MC38/hPD-L1 cells (5.0×106) dissolved in 100 μL PBS were injected subcutaneously into the humanized PD-1 mice. Upon reaching a tumor volume of approximately ˜100 mm^3, experimental animals were randomly assigned to control and various treatment groups and subsequently initiated with drug administration.
Lenvatinib (Eisai, Japan) was administered orally once daily at a dose of 10 mg/kg. Hydroxyprogesterone Caproate was administered via intraperitoneal injection every two days. Pembrolizumab was administered every three days at a dose of 200 μg per mouse. The duration of drug administration lasted around 20 days.
2) Tumor volume measured twice weekly.

CT26 tumor [1] = assay: BALB/c mouse CT26 tumor model with anti-PD-L1 antibody 10F.9G2; format: in vivo, BALB/c mice; details: anti-PD-L1 10F.9G2
Method: Female BALB/c mice aged 6-8 weeks, weighing approximately 20 grams, were used. CT26 cells (5.0×106) dissolved in 100 μL PBS were subcutaneously injected into the BALB/c mice. When the tumor volume reached ˜100 mm^3, the experimental animals were randomly assigned to control and treatment groups, and drug administration commenced.
Lenvatinib (Eisai, Japan) was administered orally once daily at a dose of 10 mg/kg; Hydroxyprogesterone Caproate was administered via intraperitoneal injection every two days; 10F.9G2 was administered every three days at a dose of 200 μg/mouse. Drug administration continued for approximately 20 days.
2) Tumor volume was measured twice a week, and its size was calculated using the formula: […]

CT26 tumor [2] = assay: BALB/c mouse CT26 tumor model, tumor volume / tumor inhibition rate; format: in vivo, BALB/c mice; set-up: Tumor Inhibition Rate (Compared with Control Group): concentration or dose not given beside the values; details: for Tumor Inhibition Rate (Compared with Control Group): CT26 model
Method: Female BALB/c mice aged 6-8 weeks with a body weight of approximately 20 grams were used. CT26 cells (5.0×106) dissolved in 100 μL of PBS were subcutaneously injected into BALB/c mice. When the tumor volume reached approximately 100 mm^3, the experimental animals were randomly divided into control and various treatment groups for the experiment.
Lenvatinib was administered orally once daily at a dosage of 10 mg/kg. Hydroxyprogesterone caproate was administered via intraperitoneal injection (abbreviated as i.p. in the table below) every two days. Anti-PD-1 antibody (RMP1-14), diluted in PBS, was administered every three days at a dosage of 200 μg per mouse.
Tumor size was measured using calipers twice a week for two-dimensional assessment. Tumor volume was calculated using the formula V=(X2Y)/2, where X and Y represent the shorter and longer diameters of the tumor, respectively, expressed in mm^3.

Compound | Tumor Inhibition Rates (Compared with Control Group) (Renca tumor; Day 6) [%] | Tumor Inhibition Rates (Compared with Control Group) (Renca tumor; Day 9) [%] | Tumor Inhibition Rates (Compared with Control Group) (Renca tumor; Day 13) [%] | Tumor Inhibition Rates (Compared with Control Group) (Renca tumor; Day 16) [%] | Tumor Inhibition Rates (Compared with Control Group) (Renca tumor; Day 20) [%] | Anti-tumor effect (in words) (MC38/hPD-L1 tumor) | Anti-tumor effect (in words) (CT26 tumor [1]) | Tumor suppression effect (in words) (Renca tumor; BALB/c mouse Renca tumor model) | Tumor suppression effect (in words) (CT26 tumor [2]; BALB/c mouse CT26 tumor model, HPC 20 mg/kg i.p., Lenvatinib 10 mg/kg p.o., RMP1-14 200 μg/mouse) | Tumor Inhibition Rate (Compared with Control Group) (CT26 tumor [2]; Day 0) [%] | Tumor Inhibition Rate (Compared with Control Group) (CT26 tumor [2]; Day 4) [%] | Tumor Inhibition Rate (Compared with Control Group) (CT26 tumor [2]; Day 7) [%] | Tumor Inhibition Rate (Compared with Control Group) (CT26 tumor [2]; Day 11) [%] | Tumor Inhibition Rate (Compared with Control Group) (CT26 tumor [2]; Day 14) [%] | Tumor Inhibition Rate (Compared with Control Group) (CT26 tumor [2]; Day 18) [%] | Tumor Inhibition Rate (Compared with Control Group) (CT26 tumor [2]; Day 20) [%]
COc1cc2nccc(Oc3ccc(NC(=O)NC4CC4)c(Cl)c3)c2cc1C(N)=O [Lenvatinib] | 0.00 | 22.92 | 48.51 | 55.37 | 70.68 | – | – | – | – | – | – | – | – | – | – | –
CCCCCC(=O)O[C@]1(C(C)=O)CC[C@H]2[C@@H]3CCC4=CC(=O)CC[C@]4(C)[C@H]3CC[C@@]21C [HPC, Hydroxyprogesterone caproate] | 0.00 | 40.00 | 48.51 | 43.95 | 56.59 | did not exhibit significant tumor inhibitory effects | did not exhibit significant tumor suppression | exhibits a certain degree of tumor suppression | did not exhibit a favorable tumor suppression effect; also recorded: promoting tumor growth | 0.00 | 3.66 | −14.89 | −13.61 | −31.32 | −47.15 | −37.09
